Measured values from US11571443B2, “Phosphorylated tri-block copolymers with antimicrobial properties” (THE UNIVERSITY OF CHICAGO, priority 2016, dated 2023).
Entries after “also recorded” stand apart in the source; their conditions may differ.

Key:
S. marcescens [1] = settings: supplementation in the drinking water; cited from earlier work
P. aeruginosa [2] = settings: supplementation in the drinking water; cited from earlier work
Enterococcus faecalis = assay: Growth of Enterococcus faecalis; format: cell-based; settings: in vitro
Description: The inability of PPi-6 to suppress the collagenolytic activity of E. faecalis in vitro relates to its inability in vivo to improve anastomotic healing. […] The efficacy of this compound in vivo correlated to its ability to profoundly suppress collagenase activity in these strains […]. […] Actually, PPi-6 at concentrations of >2 mM even suppressed the E. faecalis growth.

[3] = tested on: Enterococcus faecalis collagenolytic strains (E2 and E27); assay: Collagenase production of collagenolytic Enterococcus faecalis, overnight incubation; format: cell-based; settings: in vitro
human pathogen community = assay: Mice with 30% hepatectomy and intestinal infection with human pathogen community, polymers in drinking water; format: in vivo
Description: (A) FIG. 10(A) provides data showing the extent of cell proliferation in cecal crypts of mice provided with drinking water lacking a phosphorylated PEG (PC 1-3, i.e., pathogen community, plates 1-3 wherein each plate contained 10 or 15 C. elegans worms exposed to pathogens), drinking water containing 3% PPi6 (hexametaphosphate) (PPi6 1-3 refers to plates 1-3 as described above, but exposed to pathogens from mice drinking 3% PPi6), or drinking water containing 1% ABA-PEG20k (ABA-PEG20k-P120 1-3, wherein 1-3 refers to plates 1-3 as described above exposed to pathogen from mice drinking 1% ABA-PEG20k). All groups are SAH+PC (starvation-positive, antibiotic-positive hepatectomy subjects exposed to the pathogen community), POD2 (data from post-operative day 2), and cell proliferation is measured by immunostaining for Ki67.
An experiment was conducted to assess the effects of phosphorylated polymers, i.e., PPi-6 and ABA-PEG20k-Pi20, delivered orally as drinking solutions to mice subjected to 30% hepatectomy and intestinal infection with the human pathogen community. More particularly, the mice were divided into the following groups. Group 1 contained starvation-positive, antibiotic-positive mice receiving no phosphorylated PEG but exposed to the pathogen community. Data from three groups of mice were analyzed. Absolute (FIG. 16A) and relative to crypt depth (FIG. 16B) Ki67 distributions were counted on 90 crypts cumulative of 3 mice in each group. Group 2 contained starvation-positive, antibiotic-positive mice receiving 3% PPi-6 and exposed to the pathogen community. Data from three mice were analyzed, totaling 109 crypts for Ki67 counts. Group 3 contained starvation-positive, antibiotic-positive mice receiving 1% ABA-PEG20k-Pi20 and exposed to the pathogen community. Data from three mice were analyzed, totaling 168 crypts for Ki67 counts.
Stem cell proliferation in cecal crypts, measured by immunostaining for the Ki67 marker, provides an accepted measure of crypt homeostasis.

E. faecalis E2 = settings: oral administration
Description: Next, the compound was tested in a mouse model of E. faecalis-mediated anastomotic leak by providing 1% ABA-PEG20k-Pi20 in drinking water. At post-operative day (POD) 7, anastomotic healing was assessed and the total amount of E. faecalis present at the anastomotic site and the percentage of E. faecalis expressing the collagenolytic phenotype were determined.
Two groups of mice were involved in this study. All mice were subjected to colon anastomosis followed by an enema of E. faecalis E2 at POD1. The first group received water, and the second group received 1% ABA-PEG20k-Pi20 dissolved in water. At the time of sacrifice at POD7, the tissues and luminal contents were collected at the site of anastomosis, homogenized, and used for culturing. Total Enterococcus colonization at the anastomosis site and luminal content were determined by culture analysis using Enterococcal selective plates (BD Difco) on which all Enterococcus species produced black-pigmented colonies. The CFU count was normalized to the sample weight. […] The collagenolytic population was evaluated on Enterococcal plates covered with skim milk on which collagenolytic species produced black colonies with a clearing halo surrounding the colony.

S. marcescens [4] = settings: cited from earlier work
P. aeruginosa [5] = settings: cited from earlier work
[6] = 3% PPi6 or 1% polymer in drinking water, POD2, SAH+PC mice

SMILES: O=P1([O-])OP(=O)([O-])OP(=O)([O-])OP(=O)([O-])OP(=O)([O-])OP(=O)([O-])O1.[Na+].[Na+].[Na+].[Na+].[Na+].[Na+] [PPi-6, Sodium hexametaphosphate]
- protection from colonic anastomosis leakage (S. marcescens [1]): protects mice from colonic anastomosis leakage
- protection from colonic anastomosis leakage (P. aeruginosa [2]): protects mice from colonic anastomosis leakage
- E. faecalis growth (Enterococcus faecalis): does not promote a growth
- concentration that suppressed E. faecalis growth (Enterococcus faecalis): > 2 mM
- collagenase production / collagenolytic activity of E. faecalis [3]: only slightly attenuated collagenase production; also recorded: does not affect the collagenolytic activity
- abnormal stem cell proliferation in cecal crypts (human pathogen community; 3% PPi6 or 1% ABA-PEG20k-Pi20 in drinking water): inhibit abnormal stem cell proliferation
- height of cell proliferation above cecal crypt base (Ki67) (human pathogen community; [6]): 31.04±1.288 m
- height of proliferating cells relative to cecal crypt depth (Ki67) (human pathogen community; [6]): 35.12±1.332 m
- mortality rate (human pathogen community; post-operative day 2, 3% PPi6 or 1% ABA-PEG20k-Pi20 in drinking water): 0%
- anastomotic healing / protection in mouse model (E. faecalis E2): did not improve the anastomotic healing complications
- collagenase production (S. marcescens [4]): profoundly suppresses the collagenase production
- collagenase production (P. aeruginosa [5]): profoundly suppresses the collagenase production
